# Read-outs that look alike come from different tables or passages of the source.
# Tests used:
# [1] = Percutaneous administration to anesthetized rats (glass cell on abdominal skin), plasma concentration by HPLC and residual drug recovery; type: in vivo, rat (Jcl SD strain); settings: for MRT / AUC / Cmax / Tmax: Jcl SD, rat, plasma, topical or ocular, N=3
# Method: (I) A base was composed of 2.5% 1-menthol/20% ethanol/77.5% distilled water. The phosphate salt of Compound (I-1) as an active ingredient was dissolved or dispersed in it at concentrations of 1.4, 5.6, and 11.2 mg/mL. (II) To Non-fasting rats (Jcl SD strain rat, 9-10 weeks old) was injected 20% urethane solution subcutaneously (0.65 mL/100 g BW). After the anesthetic condition of the rat became stable, abdominal hair was removed using a hair clipper and shaver, then the rats were kept on a hotplate at 36° C. A glass cell (35 mm I.D. with a ground stopper) was attached using Aron alpha (trademark) in an abdominal region of the rat and absorbent gauze (about two sheets) was placed in the cell, then 0.5 mL of the above obtained pharmaceutical preparations of the invention was administrated to the cell (2, 8 or 16 mg/kg, N=3). (III) The time of blood collection: 0, 1, 2, 3, 4, 6, and 8 hr after the administration (IV) After the blood collection at 8 hrs, the residual drug in pharmaceutical preparations of the present invention in the cell was recovered by the addition of 50 mL of methanol. The percent of apparent absorption was calculated by the difference between the initial dose and the recovered amount at 8 hrs. AUC and MRT were calculated from plasma concentration profiles measured by HPLC. Furthermore, the skin to which the applied pharmaceutical preparations were applied and their subcutaneous part were removed and macroscopically checked after the experiments. A phosphate buffer of pH 9 was prepared from 1/15 mole of dibasic sodium phosphate dissolved in […] of distilled water. The phosphate buffers of pH 4 and pH 7 were prepared by the addition of phosphoric acid to the pH 9 buffer. A bBase was composed of 3% 1-menthol/30% ethanol/67% phosphate buffer. The phosphate salt of Compound (I-1) as an active ingredient was dissolved or dispersed in the base at a concentration of 5.6 mg/mL. Other conditions were the same as that of Experiment 1 (N=3). Results are represented in Table 2 and FIG. 2. The phosphate salt of Compound (I-1) as an active ingredient was dissolved or dispersed in bases in Table 3 at a concentration of 5.6 mg/mL. Other condition were the same as that of the Experiment 1. The 3% 1-menthol/30% ethanol/67% pH 4 phosphate buffer was selected as an aqueous base. The 2.5% 1-menthol/20% ethanol/77.5% isopropyl myristate was selected as an oily base. The phosphate salt of Compound (I-1) as an active ingredient was dissolved or dispersed in the aqueous or oily formulation at a concentration of 5.6 mg/mL. Other conditions were the same as that of Experiment 1 (N=3).
# [2] = test system: acetylcholine release; assay: Acetylcholine release in frontal cortex dialysate (microdialysis) after percutaneous administration; type: in vivo, rat (Jcl Wistar strain male); settings: 2, 4 and 8 mg/kg percutaneous, aqueous basic formulation 5.6 mg/mL; values only in FIG. 5 and 6
# Method: The day before experiment, a dialysis probe of 2 mm membrane length was inserted into frontal cortex of non-fasting rats (Jcl Wistar strain male rat 9-11 W). On the day of experiment, abdominal region hair was removed using a hair clipper and shaver under 2% halothane anesthesia. The aqueous basic formulation containing 5.6 mg/mL of Compound (I-1) was administered at a volume of 0.125, 0.25 and 0.5 mL to the rayon cloths which area were 2.5, 5, and 10 cm^2, respectively (Dose: 2, 4 and 8 mg/kg). Then the rayon cloths were placed on the abdominal region by support tape and covered with gum tape. After the administration, acetylcholine concentration in dialysate was measured every 30 min. FIG. 5 indicates a time-course of acetylcholine release after the administration of Compound (I-1). The plot data express the percent of control and the control level was monitored before the administration of Compound (I-1) in the same rat. The AUC values were calculated for 4 hrs of acetylcholine release as the percent of control in FIG. 6.
# [3] = Percutaneous administration by strapping technique to conscious rats (rayon cloth on abdominal region), plasma concentration by HPLC; type: in vivo, rat (Jcl Wistar strain male); settings: for BA: absolute bioavailability, AUC percutaneous divided by AUC intravenous; for Percent of apparent absorption: residual drug in rayon cloth recovered at 24 hr; for Cmax / Tmax / AUC(0-t): male, Jcl Wistar, rat, plasma, topical or ocular, conscious rats; for Cmax: aqueous base 3% 1-menthol/30% ethanol/67% pH 4 phosphate buffer, 5.6 mg/mL; for Tmax / AUC(0-t): aqueous base pH 4, 5.6 mg/mL; for AUC(0-t): read-out: AUC 0-360 min (converted)
# Method: The experiment was performed by the strapping technique under the conscious condition. Non-fasting rats (Jcl Wistar strain male rat 9-11 W) were cannulated in the jugular vein two days before the percutaneous administration experiment. On the day of experiment, abdominal region hair of rats were removed using a hair clipper and shaver under ether anesthesia. Three different volumes (0.125, 0.25, and 0.5 mL) of the aqueous basic formulation (3% 1-menthol/30% ethanol/67% pH 4 phosphate buffer) containing 5.6 mg/mL of Compound (I-1) were administered (2, 4, and 8 mg/kg) on the rayon cloths, which area were 2.5, 5, and 10 cm^2, respectively, supported by tape on the abdominal region then covered with gum tape. Blood samples were collected from the jugular vein of the rats in a cage, at the time of 0, 0.5, 1, 2, 3, 4, 6, 8, and 10 hr. Plasma concentrations were measured by HPLC. The rayon cloths were recovered at 24 hr after the administration and the residual drug was extracted by 30 mL of methanol in a 50 mL centrifuge tube and measured its concentration by HPLC. The percent of apparent absorption was calculated and the absolute bioavailability was calculated from the AUC of percutaneous administration divided by the AUC of intravenous administration.
# [4] = test system: skin; assay: Macroscopic check of the applied skin and subcutaneous part after the experiment (irritation); type: in vivo, rat (Jcl SD strain)
# Method: (IV) After the blood collection at 8 hrs, the residual drug in pharmaceutical preparations of the present invention in the cell was recovered by the addition of 50 mL of methanol. The percent of apparent absorption was calculated by the difference between the initial dose and the recovered amount at 8 hrs. AUC and MRT were calculated from plasma concentration profiles measured by HPLC. Furthermore, the skin to which the applied pharmaceutical preparations were applied and their subcutaneous part were removed and macroscopically checked after the experiments.
# [5] = 8 mg/kg, pH 4, aqueous base 3% 1-menthol/30% ethanol/67% pH 4 phosphate buffer, phosphate salt 5.6 mg/mL
# [6] = 8 mg/kg, pH 4, base pH 4: 3% 1-menthol/30% ethanol/67% phosphate buffer, phosphate salt 5.6 mg/mL
# [7] = 8 mg/kg, pH 7, base pH 7: 3% 1-menthol/30% ethanol/67% phosphate buffer, phosphate salt 5.6 mg/mL
# [8] = 8 mg/kg, aqueous base 3% 1-menthol/30% ethanol/67% pH 4 phosphate buffer, phosphate salt 5.6 mg/mL
# [9] = 8 mg/kg, oily base 2.5% 1-menthol/20% ethanol/77.5% isopropyl myristate, phosphate salt 5.6 mg/mL
structure (smiles),measurement,setting,value
"c1cc(-c2nc3c4c(ncc3[nH]2)CCOC4)no1 [Compound (I-1), 2-(3-isoxazolyl)-3,6,7,9-tetrahydroimidazo[4,5-d]pyrano[4,3-b]pyridine]",Percent of apparent absorption,"[1]; 2 mg/kg percutaneous, phosphate salt in 2.5% 1-menthol/20% ethanol/77.5% distilled water, initial dose minus recovered amount at 8 hrs",71.3%
same,Percent of apparent absorption,"[1]; 8 mg/kg percutaneous, phosphate salt in 2.5% 1-menthol/20% ethanol/77.5% distilled water, initial dose minus recovered amount at 8 hrs",81.0%
same,Percent of apparent absorption,"[1]; 16 mg/kg percutaneous, phosphate salt in 2.5% 1-menthol/20% ethanol/77.5% distilled water, initial dose minus recovered amount at 8 hrs",35.8%
same,MRT,"[1]; 2 mg/kg, 2 mg/kg percutaneous, phosphate salt 1.4 mg/mL in 2.5% 1-menthol/20% ethanol/77.5% distilled water",3.4 ± 0.6 h
same,AUC,"[1]; 2 mg/kg, 2 mg/kg percutaneous, phosphate salt 1.4 mg/mL in 2.5% 1-menthol/20% ethanol/77.5% distilled water, blood to 8 hr",490 ± 500 ng·h/mL
same,MRT,"[1]; 8 mg/kg, 8 mg/kg percutaneous, phosphate salt 5.6 mg/mL in 2.5% 1-menthol/20% ethanol/77.5% distilled water",3.6 ± 0.2 h
same,AUC,"[1]; 8 mg/kg, 8 mg/kg percutaneous, phosphate salt 5.6 mg/mL in 2.5% 1-menthol/20% ethanol/77.5% distilled water, blood to 8 hr",720 ± 50 ng·h/mL
same,AUC,[1]; [5],1610 ± 300 ng·h/mL
same,MRT,[1]; [5],2.2 ± 0.5 h
same,AUC,[1]; [6],1810 ± 300 ng·h/mL
same,MRT,[1]; [6],3 ± 0.2 h
same,AUC,[1]; [7],380 ± 180 ng·h/mL
same,MRT,[1]; [7],3.4 ± 0.3 h
same,Cmax,[1]; [8],690 ± 130 ng/mL
same,Tmax,[1]; [8],1.3 ± 0.6 h
same,AUC,[1]; [9],470 ± 100 ng·h/mL
same,Cmax,[1]; [9],160 ± 10 ng/mL
same,MRT,[1]; [9],2.6 ± 0.6 h
same,Tmax,[1]; [9],1 h
same,MRT,"[1]; 16 mg/kg, 16 mg/kg percutaneous, phosphate salt 11.2 mg/mL in 2.5% 1-menthol/20% ethanol/77.5% distilled water",4 ± 0.7 h
same,AUC,"[1]; 16 mg/kg, 16 mg/kg percutaneous, phosphate salt 11.2 mg/mL in 2.5% 1-menthol/20% ethanol/77.5% distilled water, blood to 8 hr",460 ± 180 ng·h/mL
same,Percent of apparent absorption,"[1]; base 2.5% I-menthol, 20% ethanol, 77.5% isopropyl myristate, phosphate salt 5.6 mg/mL",28.1%
same,Percent of apparent absorption,"[1]; base pH 4: 3% 1-menthol/30% ethanol/67% phosphate buffer, phosphate salt 5.6 mg/mL",66.8%
same,Percent of apparent absorption,"[1]; base pH 7: 3% 1-menthol/30% ethanol/67% phosphate buffer, phosphate salt 5.6 mg/mL",22.6%
same,Percent of apparent absorption,"[1]; reference example base 5% N-methyl pyrrolidone, 5% ethanol, 90% isopropyl myristate, phosphate salt 5.6 mg/mL",17.4%
same,Percent of apparent absorption,"[1]; reference example base 5% ethanol, 95% isopropyl myristate, phosphate salt 5.6 mg/mL",13.0%
same,Percent of apparent absorption,"[1]; reference example base 5% lactic acid, 5% ethanol, 90% isopropyl myristate, phosphate salt 5.6 mg/mL",11.9%
same,concentrations of Compound (I-1) in all plasma samples,"[1]; reference example bases of Table 3, under the limit of detection",< 50 ng/mL
same,"acetylcholine release in frontal cortex dialysate (percent of control, time-course and AUC for 4 hrs)",[2],prolonged pharmacological effect
same,BA,[3]; 2 mg/kg percutaneous,30.92 ± 2.59%
same,Percent of apparent absorption,[3]; 2 mg/kg percutaneous,63.9%
same,BA,[3]; 4 mg/kg percutaneous,17.86 ± 6.40%
same,Percent of apparent absorption,[3]; 4 mg/kg percutaneous,52.8%
same,BA,[3]; 8 mg/kg percutaneous,22.68 ± 9.47%
same,Percent of apparent absorption,[3]; 8 mg/kg percutaneous,60.0%
same,Cmax,"[3]; 2 mg/kg percutaneous (0.125 mL, 2.5 cm^2)",140 ± 30 ng/mL
same,Tmax,[3]; 2 mg/kg percutaneous,1.25 h
same,AUC(0-t),[3]; 2 mg/kg percutaneous,375 ng·h/mL
same,Cmax,"[3]; 4 mg/kg percutaneous (0.25 mL, 5 cm^2)",170 ± 60 ng/mL
same,Tmax,[3]; 4 mg/kg percutaneous,1.55 h
same,AUC(0-t),[3]; 4 mg/kg percutaneous,408 ng·h/mL
same,Cmax,"[3]; 8 mg/kg percutaneous (0.5 mL, 10 cm^2)",450 ± 150 ng/mL
same,Tmax,[3]; 8 mg/kg percutaneous,0.85 h
same,AUC(0-t),[3]; 8 mg/kg percutaneous,1000 ng·h/mL
same,skin irritation (macroscopic check),"[4]; Experiment 1: all doses (2, 8, 16 mg/kg), 2.5% 1-menthol/20% ethanol/77.5% distilled water base",No irritations
same,skin irritation (macroscopic check),"[4]; Experiment 2: all formulations (pH 4 and pH 7 phosphate buffer bases), 5.6 mg/mL",No irritations
